For assay [1], the system named is ovalbumin-expressing E.G7 cells. The assay is described as follows: Ovalbumin tumor treatment study: peptide immunization with or without TLR agonist. Format: in vivo, mice. The following applies: for anti-tumor effect of peptide immunization with TLR agonist: OVA or FT peptide with TLR agonist versus peptide alone, E.G7 tumors, OT-1 transfer; for LAG-3 expression on CD8+ TIL / PD-1 expression on CD8+ TIL / PD-L1 expression on tumor cells / number of CD8+ tumor-infiltrating lymphocytes: tumors at necropsy; for anti-tumor efficacy of TLR ligand adjuvant alone: with non-specific peptide, no antigen-specific T-cell activation. As to the method:
OT-1 T cells were then adoptively transferred and the following day were immunized with SIINFEKL (SEQ ID NO:1, OVA) or FT peptide (SEQ ID NO:2) alone or with TLR1/2 or TLR7 agonist. Other groups were immunized with 100 μg anti-PD-1 antibody delivered the following day. […] This anti-tumor effect was not observed with TLR agonist treatment alone (FIG. 22). […] This was associated with a reduced PD-1 (but not LAG-3) expression on CD8+ TIL (FIG. 17C).
Ovalbumin tumor treatment studies: 10^6 ovalbumin-expressing E.G7 PD-L 1^high cells were injected subcutaneously into 6- to 10-week old female B6 mice. Ten to fifteen days post injection, when tumors were palpable and similarly sized (˜0.2 cm^3), 2×10^6 naïve OT-1 CD8+ T cells were adoptively transferred to each mouse as described above. The following day mice were immunized subcutaneously with 100 μg of an individual peptide (SIINFEKL (SEQ ID NO:1) or variant, LifeTein) in PBS, with or without TLR agonists as described above. In the group receiving PD-1 blocking antibody, 100 μg of antibody (clone G4 (52)) was injected intraperitoneally on the day following vaccination. Tumor volume was measured over time using calipers and calculated in cubic centimeters according to the following formula: (π/6)*(long axis)*(short axis)^2. Tumors obtained at necropsy were digested in media containing 1 mg/mL collagenase and 20 μg/mL DNAse I (Sigma, St. Louis, MO) for 1-2 hours at 37° C. and passed through a 100-μm screen to obtain a single-cell suspension. Tumor cells and tumor-infiltrating lymphocytes (TILs) were stained and analyzed by flow cytometry using the following panel: CD3-FITC (BD 555274), CD4-BUV395 (BD 563790), CD8-BUV805 (BD 564920), LAG-3-BV711 (BD 563179), PD1-PECF594 (BD 562523), PDL1-PECy7 (BD 558017), 41BB-PerCPeF710) (eBioscience 46-1371-82), CD45-BV510 (BD 563891) and Live/Dead Ghost dye 780 (Tonbo, San Diego, CA 13-0865-T100) or corresponding fluorescently labeled IgG controls.

Assay [2] deals with purified OT-1 CD8+ T cells. The assay is described as follows: In vitro co-culture / conditioned medium experiments with APC and OT-1 CD8+ T cells. It is filed as cell-based, mice. The following applies: purified DC or B cells pre-treated with TLR agonist, SIINFEKL, 24 hours. Here is the method:
FIGS. 14A-14D. Changes in PD-1 expression following TLR stimulation are mediated by IL-12 secreted from APCs. Panel A: Purified OT-1 T cells (T), B cells (B), or dendritic cells (DC) were activated with SIINFEKL peptide (SEQ ID NO:1, OVA) or with a non-specific peptide (NS) in the presence of either TLR1/2 (TLR1/2) agonist, TLR7 agonist (TLR7), or media alone. After 24 hours, cells were washed and co-cultured with naïve purified OT-1 CD8+ T cells for an additional 24 hours and then assessed for expression of the indicated surface receptors (4-1BB, CD3, PD-1, LAG3, CTLA-4, and TIM3) by flow cytometry. Shown is the MFI for each marker, with samples assessed in triplicate. Panel B: Purified DC were stimulated in the presence of TLR1/2 agonist, TLR7 agonist, or media alone. […] After 24 hours, cells were assessed for expression of the indicated surface receptors (4-1BB, PD-1, LAG3, and CTLA-4) by flow cytometry. Shown is mean and standard error of the MFI for each marker, with samples assessed in triplicate. […] Culture supernatant was then evaluated for the presence of IL12 p70 by ELISA. […] After 24 hours, cells were assessed for expression of the indicated surface receptors (4-1BB, PD-1, LAG3, and CTLA-4) by flow cytometry. Shown is mean and standard error of the MFI for each marker, with samples assessed in triplicate and are representative of two similar experiments. […]

From US20240390487A1, “TLR AGONISTS FOR REDUCING ACTIVATION-INDUCED PD-1 EXPRESSION ON T CELLS AND METHODS OF USE” (WISCONSIN ALUMNI RESEARCH FOUNDATION, priority 2016, published 2024) come the findings set out here.

Turning to `CCNCc1nc2c(N)nc3ccccc3c2n1CC(C)(C)O` [Gardiquimod], in assay [1], the “anti-tumor effect of peptide immunization with TLR agonist” value is listed as “greater anti-tumor effect”, the “LAG-3 expression on CD8+ TIL” value is “not”, the “PD-1 expression on CD8+ TIL” value was “reduced” and the “PD-L1 expression on tumor cells” value is recorded as “reduced”. In addition, in assay [1], the “number of CD8+ tumor-infiltrating lymphocytes” value was “greater number” and the “anti-tumor efficacy of TLR ligand adjuvant alone” value is given as “do not have significant anti-tumor efficacy”. Besides, the “PD-1 expression on OT-1 T cells activated with TLR-agonist-treated APC” value in assay [2] is reported as “reduced”.

Regarding Pam3CSK4, in assay [1], the “anti-tumor effect of peptide immunization with TLR agonist” value is “greater anti-tumor effect”, the “LAG-3 expression on CD8+ TIL” value is “not”, the “PD-1 expression on CD8+ TIL” value is given as “reduced” and the “PD-L1 expression on tumor cells” value was “reduced”. In addition, in assay [1], the “number of CD8+ tumor-infiltrating lymphocytes” value is listed as “greater number” and the “anti-tumor efficacy of TLR ligand adjuvant alone” value is reported as “do not have significant anti-tumor efficacy”. Also, in assay [2], the “PD-1 expression on OT-1 T cells activated with TLR-agonist-treated APC” value is reported as “reduced”.
